In patent US5039805A, “Novel benzoic and phenylacetic acid derivatives” (Hoffmann-La Roche Inc., priority 1988, dated 1991):
Where a SMILES comes first, the peptide text is derived from it. [ ]: non-standard residue; d: D form. The star is where a group is joined. 3Abz = Nc1cccc(C(=O)O)c1; Boc = CC(C)(C)OC(=O)*

target: T1, fibrinogen receptor, glycoprotein IIb/IIIa (Homo sapiens, UniProt P05106+P08514); test: inhibition of the binding of fibrinogen to the immobilized fibrinogen receptor (ELISA); settings: fibrinogen binding to immobilized glycoprotein IIb/IIIa from human blood platelets, read-out: IC50 (inhibition of the binding of fibrinogen to the immobilized receptor by 50%)
T1 construct: obtained from Triton X-100 extracts of human blood platelets; from tissue
T1 sequence (P08514 32-887 limits assumed): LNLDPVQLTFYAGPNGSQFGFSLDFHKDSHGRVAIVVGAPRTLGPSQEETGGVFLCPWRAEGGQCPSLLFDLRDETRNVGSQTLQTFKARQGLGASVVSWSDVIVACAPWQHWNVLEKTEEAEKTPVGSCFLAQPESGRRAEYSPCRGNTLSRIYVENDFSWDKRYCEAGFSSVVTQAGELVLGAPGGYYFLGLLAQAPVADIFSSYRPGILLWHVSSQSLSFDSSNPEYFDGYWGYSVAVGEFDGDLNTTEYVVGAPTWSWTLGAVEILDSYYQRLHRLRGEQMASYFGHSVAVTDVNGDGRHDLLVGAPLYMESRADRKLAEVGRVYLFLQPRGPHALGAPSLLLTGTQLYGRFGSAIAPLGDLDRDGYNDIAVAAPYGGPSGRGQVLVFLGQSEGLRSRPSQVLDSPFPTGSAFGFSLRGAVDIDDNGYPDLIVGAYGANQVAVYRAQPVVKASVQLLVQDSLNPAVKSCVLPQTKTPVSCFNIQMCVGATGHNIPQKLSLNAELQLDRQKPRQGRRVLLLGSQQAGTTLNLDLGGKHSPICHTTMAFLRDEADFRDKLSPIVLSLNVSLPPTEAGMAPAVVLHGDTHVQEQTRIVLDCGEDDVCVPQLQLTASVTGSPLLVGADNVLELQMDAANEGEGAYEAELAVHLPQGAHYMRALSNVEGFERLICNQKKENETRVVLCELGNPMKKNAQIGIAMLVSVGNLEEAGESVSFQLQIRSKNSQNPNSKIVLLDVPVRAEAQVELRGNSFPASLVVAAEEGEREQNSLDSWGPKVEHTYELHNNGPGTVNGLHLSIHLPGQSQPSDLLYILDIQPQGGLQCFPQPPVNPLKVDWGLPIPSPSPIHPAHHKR
T1 sequence (P08514 891-1039 limits assumed): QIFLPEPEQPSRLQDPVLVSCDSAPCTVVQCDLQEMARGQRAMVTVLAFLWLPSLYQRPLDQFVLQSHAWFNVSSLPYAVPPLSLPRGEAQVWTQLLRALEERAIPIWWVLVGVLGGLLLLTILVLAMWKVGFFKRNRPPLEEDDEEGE
T1 sequence (P05106 27-788): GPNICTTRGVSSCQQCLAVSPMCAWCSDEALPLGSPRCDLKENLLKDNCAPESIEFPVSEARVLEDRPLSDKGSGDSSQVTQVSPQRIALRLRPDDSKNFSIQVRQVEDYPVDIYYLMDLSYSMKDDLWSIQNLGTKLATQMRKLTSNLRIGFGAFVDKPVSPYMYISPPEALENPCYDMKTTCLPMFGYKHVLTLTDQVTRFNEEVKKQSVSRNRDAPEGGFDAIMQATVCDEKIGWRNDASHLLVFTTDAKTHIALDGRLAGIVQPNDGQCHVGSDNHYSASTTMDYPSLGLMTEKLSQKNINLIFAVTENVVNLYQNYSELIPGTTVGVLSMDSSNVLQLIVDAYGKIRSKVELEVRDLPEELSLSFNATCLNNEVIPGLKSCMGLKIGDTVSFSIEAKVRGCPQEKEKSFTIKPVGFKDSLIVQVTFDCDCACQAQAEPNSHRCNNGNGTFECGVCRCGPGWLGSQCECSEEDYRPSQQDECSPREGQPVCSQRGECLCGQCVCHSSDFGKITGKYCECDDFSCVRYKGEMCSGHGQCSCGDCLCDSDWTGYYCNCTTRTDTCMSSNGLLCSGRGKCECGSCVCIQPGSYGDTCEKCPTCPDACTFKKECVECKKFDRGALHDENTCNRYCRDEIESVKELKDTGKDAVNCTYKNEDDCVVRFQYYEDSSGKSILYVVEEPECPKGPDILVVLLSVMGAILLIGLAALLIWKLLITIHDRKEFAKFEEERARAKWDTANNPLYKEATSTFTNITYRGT
Procedure: The glycoprotein IIb/IIIa is obtained from Triton X-100 extracts of human blood platelets and is purified by lectin affinity chromatography (Analytical Biochemistry 151, 1985, 169-177) and chromatography on an Arg-Gly-Asp-Ser affinity column (Science 231, 1986, 1559-62). The thus-obtained receptor protein is bonded to microtitre plates. The specific binding of fibrinogen to the immobilized receptor is determined with the aid of an ELISA system ("enzyme-linked immunosorbent assay"). The IC50 values hereinafter correspond to that concentration of the test substance which is required to inhibit the binding of fibrinogen to the immobilized receptor by 50%: […]

Structure (SMILES) | IC50 [nM]
NCCCCCC(=O)Nc1cccc(C(=O)NCCC(=O)O)c1 [Example 5, N-[m-(6-aminohexanamido)benzoyl]-β-alanine] | 270
NCCCCCCC(=O)Nc1cccc(C(=O)NCCC(=O)O)c1 [Example 21, N-[m-(7-aminoheptanamido)benzoyl]-β-alanine] | 460
N=C(N)NCCCCC(=O)Nc1cccc(C(=O)NCCC(=O)O)c1 [Example 22, N-[m-(5-guanidinovaleramido)benzoyl]-β-alanine] | 250
NCCCCCC(=O)Nc1ccc(Cl)c(C(=O)NCCC(=O)O)c1 [Example 17, N-[5-(6-aminohexanamido)-2-chlorobenzoyl]-β-alanine] | 380
CC(C)(C)OC(=O)N[C@@H](CCCN)C(=O)Nc1cccc(C(=O)NCCC(=O)O)c1 [Example 28, N-[m-[[(S)-N2-(t-butoxycarbonyl)-L-ornithyl]amino]benzoyl]-β-alanine] | 140
N=C(N)NCCCCCC(=O)Nc1cccc(C(=O)NCCC(=O)O)c1 [Example 10, N-[m-(6-guanidinohexanamido)benzoyl]-β-alanine] | 260
NCCCCC(=O)Nc1cccc(C(=O)NCCC(=O)O)c1 [Example 9, N-[m-(5-aminovaleramido)benzoyl]-β-alanine] | 240
NCc1ccc(C(=O)Nc2cccc(C(=O)NCCC(=O)O)c2)cc1 [Example 8, N-[m-(α-amino-p-toluamido)benzoyl]-β-alanine] | 160
N=C(N)NCc1ccc(C(=O)Nc2cccc(C(=O)NCCC(=O)O)c2)cc1 [Example 13, N-[m-(α-guanidino-p-toluamido)benzoyl]-β-alanine] | 220
CC(C)[C@H](NC(=O)[C@H](CC(=O)O)NC(=O)c1cccc(NC(=O)[C@@H](N)CCCNC(=N)N)c1)C(=O)O [Example 14, N-[N-[m-(L-arginylamino)benzoyl]-L-α-aspartyl]-L-valine] (H-R[3Abz]DV-OH) | 300
CC(C)[C@H](NC(=O)[C@H](CC(=O)O)NC(=O)c1cccc(NC(=O)[C@H](CCCN=C(N)N)NC(=O)OC(C)(C)C)c1)C(=O)O [Example 15, [m-(Boc-Arg-NH)benzoyl]-Asp-Val] (Boc-R[3Abz]DV-OH) | 80
N=C(N)NCCCC(=O)Nc1cccc(C(=O)NCCC(=O)O)c1 [Example 24, N-[m-(4-guanidinobutyramido)benzoyl]-β-alanine] | 380

Continued, values first:

IC50 [nM] | Structure (SMILES)
140 | N=C(N)c1ccc(CC(=O)Nc2cccc(C(=O)NCCC(=O)O)c2)cc1 [Example 52, N-[m-[2-(p-amidinophenyl)acetamido]benzoyl]-β-alanine]
0.1 | N=C(N)c1ccc(C(=O)Nc2cccc(C(=O)NCCC(=O)O)c2)cc1 [Example 35, N-[m-(p-amidinobenzamido)-benzoyl]-β-alanine]
17 | N=C(N)c1ccc(C(=O)Nc2ccc(C(=O)NCCC(=O)O)cc2)cc1 [Example 51, N-[p-(p-amidinobenzamido)benzoyl]-β-alanine]
84 | N=C(N)c1ccc(CC(=O)Nc2cccc(C(=O)N[C@@H](CC(=O)O)C(=O)N[C@@H](Cc3ccccc3)C(=O)O)c2)cc1 [Example 65, N-[N-[m-[2-(p-amidinophenyl)acetamido]benzoyl]-L-α-aspartyl]-3-phenyl-L-alanine]
120 | NCc1ccc(CC(=O)Nc2cccc(C(=O)NCCC(=O)O)c2)cc1 [Example 32, N-[m-[2-(α-amino-p-tolyl)acetamido]benzoyl]-β-alanine]
280 | NCCCCC(=O)Nc1cccc(C(=O)NC(CC(=O)O)c2ccc3c(c2)CCC3)c1 (racemic) [Example 41, DL-N-[m-(5-aminovaleramido)benzoyl]-3-(5-indanyl)-β-alanine]
70 | O=C(O)CCNC(=O)c1cccc(NC(=O)CCC2CCNCC2)c1 [Example 53, N-[m-[3-(4-piperidinyl)propionamido]benzoyl]-β-alanine]
10 | N=C(N)c1ccc(C(=O)Nc2ccc(OCc3ccccc3)c(C(=O)NCCC(=O)O)c2)cc1 [Example 54, N-[5-(p-amidinobenzamido)-2-(benzyloxy)benzoyl]-β-alanine]
46 | N=C(N)c1ccc(C(=O)Nc2cccc(C(=O)N[C@@H](CC(=O)O)C(=O)N[C@@H](Cc3cccc4ccccc34)C(=O)O)c2)cc1 [Example 34, N-[N-[m-(p-amidinobenzamido)benzoyl]-L-α-aspartyl]-3-(1-naphthyl)-L-alanine]
50 | COC(=O)[C@H](CC(=O)O)NC(=O)c1cccc(NC(=O)c2ccc(C(=N)N)cc2)c1 [Example 60, (S)-3-[m-(p-amidinobenzamido)benzamido]-3-(methoxycarbonyl)propionic acid]
150 | NCCCCC(=O)Nc1ccc(OCc2ccccc2)c(C(=O)NCCC(=O)O)c1 [Example 46, N-[5-(5-aminovaleramido)-2-(benzyloxy)benzoyl]-β-alanine]
270 | N=C(N)NCC(=O)Nc1cccc(C(=O)NCCC(=O)O)c1 [Example 36, N-[m-[(N-amidinoglycyl)amino]benzoyl]-β-alanine]
180 | N=C(N)NCCCCC(=O)Nc1ccc(OCc2ccccc2)c(C(=O)NCCC(=O)O)c1 [Example 47, N-[2-(benzyloxy)-5-(5-guanidinovaleramido)benzoyl]-β-alanine]
5 | N=C(N)c1ccc(C(=O)Nc2cc(C(=O)NCCC(=O)O)ccc2O)cc1 [Example 56, N-[3-(p-amidinobenzamido)-4-hydroxybenzoyl]-β-alanine]
25 | N=C(N)c1ccc(C(=O)Nc2cc(C(=O)NCCC(=O)O)ccc2OCc2ccccc2)cc1 [Example 55, N-[3-(p-amidinobenzamido)-4-(benzyloxy)benzoyl]-β-alanine]
220 | N=C(N)N1CCC(C(=O)Nc2cccc(C(=O)N[C@@H](CC(=O)O)C(=O)N[C@@H](Cc3ccccc3)C(=O)O)c2)CC1 [Example 64, N-[N-[m-(1-amidino-4-piperidinecarboxamido)benzoyl]-L-α-aspartyl]-3-phenyl-L-alanine]

system: not listed separately; test: LD50 in the mouse (acute toxicity); settings: in vivo, ip, intraperitoneally
Procedure: The compounds of formula I are non-toxic. Thus, the product of Example 10 has a LD50 of more than 1000 mg/kg intraperitoneally and more than 2000 mg/kg perorally in the mouse.

Structure (SMILES) | LD50 [mg/kg]
N=C(N)NCCCCCC(=O)Nc1cccc(C(=O)NCCC(=O)O)c1 [Example 10, N-[m-(6-guanidinohexanamido)benzoyl]-β-alanine] | > 1000

same assay, conditions: in vivo, po, perorally

Structure (SMILES) | LD50 [mg/kg]
N=C(N)NCCCCCC(=O)Nc1cccc(C(=O)NCCC(=O)O)c1 [Example 10, N-[m-(6-guanidinohexanamido)benzoyl]-β-alanine] | > 2000
